# Results: patent US12492422B2, “Ex vivo protease activity detection for disease detection/diagnostic, staging, monitoring and treatment” (Sunbird Bio, Inc., priority 2020, dated 2025)
# Square brackets hold non-standard residues; d marks the D form. Primed or numbered codes have the meaning given here. Ends that are not written are not given here. CPQ2″ = quencher on the Lys side chain; FAM = fluorescent reporter; CPQ2(4) = quencher on Lys; PEG2″ = PEG2 spacer; CPQ2 = quencher
# What was measured:
# [1] = system: proteases cleaving Probe #102 in plasma (cathepsin L); test: Inhibitor profiling of Probe #102 cleavage in NASH and healthy plasma; type: biochemical, mice; conditions: for effect of inhibitor on Probe #102 signal: NASH or healthy samples
# Procedure: For this experiment, all plasma samples were prepared individually and diluted 1/10e in PBS with inhibitor added directly to the samples. Inhibitor was prepared at 15× concentration to final. Substrates were diluted in DI water at 18 uM, such that the final concentration on the plate would be 6 uM. All samples were prepared such that their last dilution on the plate would not affect the desired final concentration. 10 ul of each individual sample was pipetted into their corresponding wells, and the plate was then spun down in the centrifuge at 1500 RPM for 30 seconds to coat the bottom of each well with the sample. 5 ul of the 18 uM substrate solution was pipetted into each well being used on a 384 well plate, and then the plate was spun down in the centrifuge at 1500 rpm for 30 seconds. The plate was placed immediately in the plate reader at 37° C. for a 30-minute-long fluorescence kinetic read at 485/535 extended gain.
# To assess the proteolytic cleavage pattern of Probe #102, samples were tested using a pool of broad inhibitors for serine, cysteine, threonine, MMP and aspartic protease family members (broad inhibitor) to assess general protease activity, AEBSF for serine proteases, E64 for cysteine proteases, CTSi for broad cathepsin inhibition of cathepsins L, S, K and B, or specific inhibitors for cathepsin K (L00625), for cathepsin L (SID) or cathepsin B (CA074).
# furin = furin (Homo sapiens, UniProt P09958); conditions: solid-state fluorescence of precipitates after reaction of HPQF with furin; cited from earlier work
# [2] = system: carboxylesterase 1, phospholipase A2 and lipoprotein lipase; test: Resorufin oleate substrate with recombinant enzymes spiked in human plasma; type: biochemical
# caspase activity = test: Ex vivo probe cleavage in plasma of Jo2 fulminant hepatitis model; type: biochemical, mouse; conditions: plasma 3 hours after Jo2 injection
# Procedure: Fulminant hepatitis is induced after injection intraperitoneal of monoclonal antibody anti-CD95 (Jo2, BD biosciences, 4 ug/animal), and mouse plasma samples were collected 3 hours after Jo2 injection.
# The comparison with mass spectrometry data also aligns and confirms high concordance with the ex vivo approach, which is reassuring to confirm the existence of a biologically relevant signal.
# COVID-related proteases [3] = test: Ex vivo probe cleavage in K2EDTA and Lithium Heparin plasma, COVID vs healthy; type: biochemical; conditions: K2EDTA and LiHeparin plasma cohorts
# [4] = system: cathepsin and/or MMP protease activities; test: Ex vivo probe cleavage in plasma: healthy, NASH regression, NASH progression; type: biochemical, mice; conditions: K2EDTA plasma at 20 weeks
# Description: Plasma samples were collected from all animals at 20 weeks.
# The probes showing the most differentiation in NASH were linked to cathepsin and/or MMP protease activities.
# COVID-related proteases [5] = test: Ex vivo probe cleavage in COVID positive and negative swab samples; type: biochemical
# Granzyme B = target: T1, Granzyme B (Homo sapiens, UniProt P10144); test: Inhibition experiments on Probe #647 signal in swabs (Granzyme B, caspases); type: biochemical; conditions: healthy vs COVID samples
# T1 construct: from tissue; host or cells: swab samples
# T1 sequence (P10144 21-247): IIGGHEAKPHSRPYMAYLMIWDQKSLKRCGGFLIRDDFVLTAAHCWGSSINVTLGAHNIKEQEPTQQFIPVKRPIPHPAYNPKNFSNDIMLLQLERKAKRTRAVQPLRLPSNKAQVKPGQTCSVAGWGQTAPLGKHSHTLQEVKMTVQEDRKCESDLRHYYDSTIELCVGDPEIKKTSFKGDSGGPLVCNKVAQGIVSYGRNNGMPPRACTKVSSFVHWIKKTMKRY
# Chain of furin (P09958 108-794, species assumed): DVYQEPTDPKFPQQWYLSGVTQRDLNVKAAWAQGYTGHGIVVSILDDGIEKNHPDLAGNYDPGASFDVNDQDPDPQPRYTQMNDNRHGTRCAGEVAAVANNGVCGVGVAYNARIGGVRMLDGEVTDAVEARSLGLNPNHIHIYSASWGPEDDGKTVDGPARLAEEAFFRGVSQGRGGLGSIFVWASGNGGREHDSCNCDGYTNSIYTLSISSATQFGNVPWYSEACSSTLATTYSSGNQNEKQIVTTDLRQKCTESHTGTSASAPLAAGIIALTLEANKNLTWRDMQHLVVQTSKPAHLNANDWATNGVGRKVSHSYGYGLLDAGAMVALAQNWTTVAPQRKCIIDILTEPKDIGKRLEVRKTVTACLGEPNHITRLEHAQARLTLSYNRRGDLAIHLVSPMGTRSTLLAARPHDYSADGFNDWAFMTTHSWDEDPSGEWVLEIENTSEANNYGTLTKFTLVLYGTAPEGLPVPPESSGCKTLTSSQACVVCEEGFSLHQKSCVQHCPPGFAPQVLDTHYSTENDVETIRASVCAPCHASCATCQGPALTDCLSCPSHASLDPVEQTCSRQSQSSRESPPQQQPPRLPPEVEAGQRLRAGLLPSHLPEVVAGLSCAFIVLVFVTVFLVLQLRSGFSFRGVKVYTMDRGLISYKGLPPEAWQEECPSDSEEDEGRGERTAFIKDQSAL
molecule,measurement,setting,value
NCCc1ccc(S(=O)(=O)F)cc1 [AEBSF],decrease of RFU signal in NASH samples,"[1]; Probe #102 6 uM, NASH plasma diluted in PBS, 30-minute kinetic read at 37° C.",65%
same,decrease of RFU signal in healthy samples,"[1]; Probe #102 6 uM, healthy plasma diluted in PBS, 30-minute kinetic read at 37° C.",60%
CCCNC(=O)[C@H]1O[C@@H]1C(=O)N[C@H](C(=O)N1CCC[C@H]1C(=O)O)[C@@H](C)CC [CA074],effect of inhibitor on Probe #102 signal,[1],did not significantly decrease signal
O=c1[nH]c(-c2cc(Cl)ccc2O)nc2ccc(Cl)cc12 [Cl-HPQ],fluorescence enhancement,furin,more than 60 fold
CC(C)C[C@H](NC(=O)[C@H]1O[C@@H]1C(=O)O)C(=O)NCCCCN=C(N)N [Probe E64],effect of inhibitor on Probe #102 signal,[1],decreased NASH signal significantly
CN1CCN(c2nc(-c3ccc(C(=O)NC4(C(=O)NCC#N)CCCCC4)cc3)cs2)CC1 [Probe L006235],effect of inhibitor on Probe #102 signal,[1],did not significantly decrease signal
CCCC(=O)O [butyrate],suitability as substrate for enzyme detection,[2],promising for detection of broad range of enzymes
"Probe #8: Caspase centric probe (GVDVADGK; not fully specified; 5-FAM, CPQ2 quencher, PEG2, D-Lys-D-Lys-GC; MOD_RES (8)..(8) Lys modified with a CPQ2 quencher)",contrast in Jo2 hepatitis model,caspase activity,show contrast that is specific and sensitive to the Jo2 model
"Probe #12: Caspase centric probe (GDEVDGK; not fully specified; 5-FAM, CPQ2 quencher, PEG2, D-Lys-D-Lys-GC; MOD_RES (7)..(7) Lys modified with a CPQ2 quencher)",contrast in Jo2 hepatitis model,caspase activity,show contrast that is specific and sensitive to the Jo2 model
"Probe #18: Neutrophil elastase substrate (GAAPVGK(CPQ2); also: 5-FAM, position not given here, PEG2, position not given here)",differential cleavage between COVID and healthy samples,COVID-related proteases [3],demonstrated contrast in both sets
"Probe #84: Furin substrate (GRVKRGLAGK(CPQ2); also: 5-FAM, position not given here, PEG2, position not given here)",differential cleavage between COVID and healthy samples,COVID-related proteases [3],demonstrated contrast in both sets
"Probe #96: probe of Table 1 ({FAM}-GRPLALWESQGK(CPQ2(4))[PEG2″][dK]GC; not fully specified; printed as (FAM)-GRPLALWESQG-K(CPQ2)-PEG2-k-GC; also: FAM, place not given here, D-Lys-GC, place not given here)","differentiation among healthy, regression and NASH samples",[4],can differentiate
"Probe #102: a CTSL sensing probe; fluorescent reporter and quencher ({FAM}-GKPILFFRLKGK(CPQ2″)[PEG2″][dK][dK]GC; also: fluorescent reporter and quencher, places not given here)","differentiation among healthy, regression and NASH samples",[4],can differentiate
same,protease whose activity the probe responds to,"[1]; individual cathepsin inhibitors, FIG. 30D-F",specifically responds to the activity of cathepsin L (CTSL)
"Probe #409: the SARS CoV2 coronavirus substrate (GTSAVLQSGFRKGK(CPQ2); also: 5-FAM, position not given here, PEG2, position not given here)",differential cleavage between COVID and healthy samples,COVID-related proteases [3],modest contrast in the K2 EDTA samples
"Probe #428: probe of Table 1 ({FAM}-GDRRKKLTQGK(CPQ2(4))[PEG2″][dK][dK]GC; not fully specified; printed as (FAM)-GDRRKKLTQG-K(CPQ2)-(PEG2)-DLys-DLys-GC; also: FAM, place not given here, D-Lys-D-Lys-GC, place not given here)","differentiation among healthy, regression and NASH samples",[4],can differentiate
"Probe #462: MMP8 substrate (GKKAKRNALGK(CPQ2); also: FAM, position not given here, PEG2, position not given here)",differential cleavage between COVID and healthy samples,COVID-related proteases [3],demonstrated contrast in both sets
"Probe #492: probe of Table 1; differentiates NASH in mouse plasma ({FAM}-GQRANSIRVTWGK(CPQ2(4))[PEG2″][dK][dK]GC; not fully specified; printed as (FAM)-GQRANSIRVTWG-K(CPQ2)-(PEG2)-DLys-DLys-GC; also: FAM, place not given here, D-Lys-D-Lys-GC, place not given here)","differentiation among healthy, regression and NASH samples",[4],can differentiate
"Probe #520: probe of Table 1 (GKPISLISSGK; not fully specified; 5FAM, CPQ2 quencher, PEG2-GC; MOD_RES (11)..(11) Lys modified with a CPQ2 quencher)","differentiation among healthy, regression and NASH samples",[4],can differentiate
"Probe #647: Caspase centric probe; signal measures Granzyme B activity (GAIEPDSGGK(CPQ2); also: 5FAM, position not given here, PEG2, position not given here, D-Lys-D-Lys-GC-NH2, position not given here)",active samples among COVID+,COVID-related proteases [5]; adjusted RFU across timepoints,7 samples
same,active samples among COVID−,COVID-related proteases [5]; adjusted RFU across timepoints,1 sample
same,differentiation between COVID+ and COVID− samples,COVID-related proteases [5]; swab samples in saline,key differentiator
same,"differentiation among healthy, regression and NASH samples",[4],can differentiate
same,contrast in Jo2 hepatitis model,caspase activity,show contrast that is specific and sensitive to the Jo2 model
same,protease measured by probe signal,Granzyme B,measures the activity of protease Granzyme B
Resorufin oleate,suitability as substrate for enzyme detection,[2],promising for detection of broad range of enzymes
